Data reported in ChEMBL document CHEMBL3885861, “Open TG-GATES”.

Species: Rattus norvegicus
Experiment: Open TG-GATES - Regimen: Single
Format: toxicity, organism-based, Sprague-Dawley
Parameters: regimen Single, gender Male, age 6 weeks
Settings: in vivo, po, 10 mg/kg, route gavage, dose level Low; for gamma-GTP / ALP / ALT / AST / BUN / CRE / Ca / DBIL / GLC / IP / K / LDH / Na / PL / RALB / TBIL / TC / TG / TP: tissue Plasma; for KIDNEY_L / KIDNEY_R / KIDNEY_TOTAL: tissue Kidney; for LIVER: tissue Liver

CSc1ccc2c(c1)N(CCC1CCCCN1C)c1ccccc1S2 (configuration not stated) [THIORIDAZINE]
gamma-GTP (6 h): 3.2 IU/L
TERMINAL_BW (9 h): 213.3 g
APTT (9 h, tissue Blood): 16.6 s
Bas (9 h, tissue Blood): 0%
Eos (9 h, tissue Blood): 1%
Fbg (9 h, tissue Blood): 209.6 mg/dL
Hb (9 h, tissue Blood): 12.7 g/dL
Ht (9 h, tissue Blood): 38.5%
Lym (9 h, tissue Blood): 72.4%
MCH (9 h, tissue Blood): 21.3 pg
MCHC (9 h, tissue Blood): 33.1%
MCV (9 h, tissue Blood): 64.5 fL
Mono (9 h, tissue Blood): 6.4%
Neu (9 h, tissue Blood): 20.6%
PT (9 h, tissue Blood): 12.3 s
Plat (9 h, tissue Blood): 105.4 x10_4/uL
RBC (9 h, tissue Blood): 598.2 x10_4/ul
Ret (9 h, tissue Blood): 8.1%
WBC (9 h, tissue Blood): 80.7 x10_2/uL
KIDNEY_L (9 h): 1 g
KIDNEY_R (9 h): 1 g
KIDNEY_TOTAL (9 h): 2.1 g
LIVER (9 h): 9.6 g
ALP (9 h): 749.8 IU/L
ALT (9 h): 29.4 IU/L
AST (9 h): 64.4 IU/L
BUN (9 h): 11.2 mg/dL
CRE (9 h): 0.6 mg/dL
Ca (9 h): 10.8 mg/dL
DBIL (9 h): 0.034 mg/dL
GLC (9 h): 195.4 mg/dL
IP (9 h): 10.7 mg/dL
K (9 h): 5.1 meq/L
LDH (9 h): 66.8 IU/L
Na (9 h): 140 meq/L
PL (9 h): 142.2 mg/dL
RALB (9 h): 3.8 g/dL
TBIL (9 h): 0.4 mg/dL
TC (9 h): 77.4 mg/dL
TG (9 h): 31.4 mg/dL
TP (9 h): 5.3 g/dL
gamma-GTP (9 h): 1.6 IU/L
TERMINAL_BW (24 h): 232.6 g
APTT (24 h, tissue Blood): 16.5 s
Bas (24 h, tissue Blood): 0%
Eos (24 h, tissue Blood): 1%
Fbg (24 h, tissue Blood): 215.4 mg/dL
Hb (24 h, tissue Blood): 13 g/dL
Ht (24 h, tissue Blood): 39.1%
Lym (24 h, tissue Blood): 80.4%
MCH (24 h, tissue Blood): 21.8 pg
MCHC (24 h, tissue Blood): 33.3%
MCV (24 h, tissue Blood): 65.3 fL
Mono (24 h, tissue Blood): 6.6%
Neu (24 h, tissue Blood): 11.8%
PT (24 h, tissue Blood): 12.2 s
RBC (24 h, tissue Blood): 599.2 x10_4/ul
Ret (24 h, tissue Blood): 8.2%
WBC (24 h, tissue Blood): 132.3 x10_2/uL
KIDNEY_L (24 h): 1 g
KIDNEY_R (24 h): 1 g
KIDNEY_TOTAL (24 h): 2 g
LIVER (24 h): 11.9 g
ALP (24 h): 799.2 IU/L
ALT (24 h): 39.6 IU/L
AST (24 h): 68.6 IU/L
BUN (24 h): 19 mg/dL
CRE (24 h): 0.5 mg/dL
Ca (24 h): 11.3 mg/dL
DBIL (24 h): 0.074 mg/dL
GLC (24 h): 193.6 mg/dL
IP (24 h): 8.7 mg/dL
K (24 h): 4.9 meq/L
LDH (24 h): 77.4 IU/L
Na (24 h): 138.2 meq/L
PL (24 h): 154.8 mg/dL
RALB (24 h): 4 g/dL
TBIL (24 h): 0.4 mg/dL
TC (24 h): 81 mg/dL
TG (24 h): 116.8 mg/dL
TP (24 h): 5.8 g/dL
gamma-GTP (24 h): 1.4 IU/L
